Measurements taken from patent US12415803B2, “Fused imidazopyridines as reversible inhibitors of Brutons Tyrosine Kinase (BTK)” (Merck Patent GmbH, priority 2018, dated 2025).
pIC50: −log10 of the molar value.

Assays:
[1] = target: full-length human BTK (Homo sapiens (Human), UniProt Q06187); experiment: BTK IC50 Enzyme Assay (microfluidic off-chip mobility shift kinase assay); format: biochemical; conditions: Btk Enzymatic IC50 Assay, 90 min at 27 C;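 further: Read-out separates phosphorylated peptide product from substrate by their charge-to-mass difference, with IC50 fitted from log inhibitor concentration against percent enzyme activity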
full-length human BTK, sequence (Q06187 whole entry): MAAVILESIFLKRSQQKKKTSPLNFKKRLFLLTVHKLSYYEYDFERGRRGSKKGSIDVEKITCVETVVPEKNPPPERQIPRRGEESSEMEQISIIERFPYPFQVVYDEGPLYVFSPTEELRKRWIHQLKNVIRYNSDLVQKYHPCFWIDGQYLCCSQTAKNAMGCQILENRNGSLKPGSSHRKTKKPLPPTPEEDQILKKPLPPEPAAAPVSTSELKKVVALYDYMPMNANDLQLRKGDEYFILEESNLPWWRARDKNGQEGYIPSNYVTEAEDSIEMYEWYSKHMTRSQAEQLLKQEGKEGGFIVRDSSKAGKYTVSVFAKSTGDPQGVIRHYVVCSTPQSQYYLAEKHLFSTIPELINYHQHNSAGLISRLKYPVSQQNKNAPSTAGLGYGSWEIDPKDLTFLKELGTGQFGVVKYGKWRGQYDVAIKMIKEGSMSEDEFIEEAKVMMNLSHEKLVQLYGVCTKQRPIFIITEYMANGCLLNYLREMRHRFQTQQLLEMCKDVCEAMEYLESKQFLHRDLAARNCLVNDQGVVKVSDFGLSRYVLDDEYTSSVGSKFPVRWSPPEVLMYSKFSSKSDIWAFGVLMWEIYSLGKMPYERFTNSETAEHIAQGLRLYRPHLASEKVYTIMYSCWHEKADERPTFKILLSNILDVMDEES

[2] = target: Btk (Homo sapiens (Human), UniProt Q06187); experiment: Btk PBMC IC50 Cell Assay (anti-IgM-induced CD69 expression on B cells); format: cell-based; conditions: anti-IgM-induced CD69 expression on CD19 positive cells in human PBMCs;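 further: freshly isolated human PBMCs, IC50 from concentration-response of the share of CD19+ cells expressing CD69 after anti-IgM BCR stimulation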
Btk, sequence (Q06187 whole entry): as above

## Cc1c(-c2nc3c(-c4ccc5c(c4)CCCC[C@H]5NC(=O)c4noc(C(C)(C)C)n4)ccnc3[nH]2)cnn1C(C)C [Compound 21, 5-tert-Butyl-[1,2,4]oxadiazole-3-carboxylic acid {(R)-2-[2-(1-isopropyl-5-methyl-1H-pyrazol-4-yl)-3H-imidazo[4,5-b]pyridin-7-yl]-6,7,8,9-tetrahydro-5H-benzocyclohepten-5-yl}-amide]
[1]
  pIC50: > 9.00
[2]
  pIC50: 8.00 to 9.00

## Cc1c(-c2nc3c(-c4ccc5c(c4)CCCC[C@@H]5NC(=O)c4noc(C(C)(C)C)n4)ccnc3[nH]2)cnn1C(C)C [Compound 22, 5-tert-Butyl-[1,2,4]oxadiazole-3-carboxylic acid {(S)-2-[2-(1-isopropyl-5-methyl-1H-pyrazol-4-yl)-3H-imidazo[4,5-b]pyridin-7-yl]-6,7,8,9-tetrahydro-5H-benzocyclohepten-5-yl}-amide]
[1]
  pIC50: 8.00 to 9.00
[2]
  pIC50: 7.00 to 8.00

## Cc1c(-c2nc3c(-c4ccc5c(c4)CCCCC5NC(=O)c4noc(C5(C)CC5)n4)ccnc3[nH]2)cnn1C(C)C (centres unmarked) [Compound 23, 5-(1-Methyl-cyclopropyl)-[1,2,4]oxadiazole-3-carboxylic acid {2-[2-(1-isopropyl-5-methyl-1H-pyrazol-4-yl)-3H-imidazo[4,5-b]pyridin-7-yl]-6,7,8,9-tetrahydro-5H-benzocyclohepten-5-yl}-amide]
[1]
  pIC50: > 9.00
[2]
  pIC50: 8.00 to 9.00

## Cc1c(-c2nc3c(-c4ccc5c(c4)CCCC[C@@H]5NC(=O)c4noc(C5(C)CC5)n4)ccnc3[nH]2)cnn1C(C)C [Compound 25, 5-(1-Methyl-cyclopropyl)-[1,2,4]oxadiazole-3-carboxylic acid {(S)-2-[2-(1-isopropyl-5-methyl-1H-pyrazol-4-yl)-3H-imidazo[4,5-b]pyridin-7-yl]-6,7,8,9-tetrahydro-5H-benzocyclohepten-5-yl}-amide]
[1]
  pIC50: 8.00 to 9.00
[2]
  pIC50: 7.00 to 8.00

## Cc1c(-c2nc3c(-c4ccc5c(c4)CCCC[C@H]5NC(=O)c4nc(C5(C)CC5)no4)ccnc3[nH]2)cnn1C(C)C [Compound 27, 3-(1-Methyl-cyclopropyl)-[1,2,4]oxadiazole-5-carboxylic acid {(R)-2-[2-(1-isopropyl-5-methyl-1H-pyrazol-4-yl)-3H-imidazo[4,5-b]pyridin-7-yl]-6,7,8,9-tetrahydro-5H-benzocyclohepten-5-yl}-amide]
[1]
  pIC50: > 9.00
[2]
  pIC50: 8.00 to 9.00

## Cc1c(-c2nc3c(-c4ccc5c(c4)CCCC[C@@H]5NC(=O)c4nc(C5(C)CC5)no4)ccnc3[nH]2)cnn1C(C)C [Compound 28, 3-(1-Methyl-cyclopropyl)-[1,2,4]oxadiazole-5-carboxylic acid {(S)-2-[2-(1-isopropyl-5-methyl-1H-pyrazol-4-yl)-3H-imidazo[4,5-b]pyridin-7-yl]-6,7,8,9-tetrahydro-5H-benzocyclohepten-5-yl}-amide]
[1]
  pIC50: < 7.00
[2]
  pIC50: < 7.00

## Cc1nn(C(C)C)c(C)c1-c1nc2c(-c3ccc4c(c3)CCCCC4NC(=O)c3noc(C(C)(C)C)n3)ccnc2[nH]1 (centres unmarked) [Compound 29, 5-tert-Butyl-[1,2,4]oxadiazole-3-carboxylic acid {2-[2-(1-isopropyl-3,5-dimethyl-1H-pyrazol-4-yl)-3H-imidazo[4,5-b]pyridin-7-yl]-6,7,8,9-tetrahydro-5H-benzocyclohepten-5-yl}-amide]
[1]
  pIC50: > 9.00
[2]
  pIC50: 8.00 to 9.00

## Cc1nn(C(C)C)c(C)c1-c1nc2c(-c3ccc4c(c3)CCCC[C@H]4NC(=O)c3noc(C(C)(C)C)n3)ccnc2[nH]1 [Compound 30, 5-tert-Butyl-[1,2,4]oxadiazole-3-carboxylic acid {(R)-2-[2-(1-isopropyl-3,5-dimethyl-1H-pyrazol-4-yl)-3H-imidazo[4,5-b]pyridin-7-yl]-6,7,8,9-tetrahydro-5H-benzocyclohepten-5-yl}-amide]
[1]
  pIC50: > 9.00
[2]
  pIC50: 8.00 to 9.00

## Cc1nn(C(C)C)c(C)c1-c1nc2c(-c3ccc4c(c3)CCCC[C@@H]4NC(=O)c3noc(C(C)(C)C)n3)ccnc2[nH]1 [Compound 31, 5-tert-Butyl-[1,2,4]oxadiazole-3-carboxylic acid {(S)-2-[2-(1-isopropyl-3,5-dimethyl-1H-pyrazol-4-yl)-3H-imidazo[4,5-b]pyridin-7-yl]-6,7,8,9-tetrahydro-5H-benzocyclohepten-5-yl}-amide]
[1]
  pIC50: 8.00 to 9.00
[2]
  pIC50: 7.00 to 8.00

## Cc1nn(C(C)C)c(C)c1-c1nc2c(-c3ccc4c(c3)CCCCC4NC(=O)c3noc(C4(C)CC4)n3)ccnc2[nH]1 (centres unmarked) [Compound 32, 5-(1-Methyl-cyclopropyl)-[1,2,4]oxadiazole-3-carboxylic acid {2-[2-(1-isopropyl-3,5-dimethyl-1H-pyrazol-4-yl)-3H-imidazo[4,5-b]pyridin-7-yl]-6,7,8,9-tetrahydro-5H-benzocyclohepten-5-yl}-amide]
[1]
  pIC50: > 9.00
[2]
  pIC50: 8.00 to 9.00

## Cc1nn(C(C)C)c(C)c1-c1nc2c(-c3ccc4c(c3)CCCC[C@@H]4NC(=O)c3noc(C4(C)CC4)n3)ccnc2[nH]1 [Compound 34, 5-(1-Methyl-cyclopropyl)-[1,2,4]oxadiazole-3-carboxylic acid {(S)-2-[2-(1-isopropyl-3,5-dimethyl-1H-pyrazol-4-yl)-3H-imidazo[4,5-b]pyridin-7-yl]-6,7,8,9-tetrahydro-5H-benzocyclohepten-5-yl}-amide]
[1]
  pIC50: 8.00 to 9.00
[2]
  pIC50: < 7.00

## Cc1nn(C(C)C)c(C)c1-c1nc2c(-c3ccc4c(c3)CCCCC4NC(=O)c3nc(C4(C)CC4)no3)ccnc2[nH]1 (centres unmarked) [Compound 35, 3-(1-Methyl-cyclopropyl)-[1,2,4]oxadiazole-5-carboxylic acid {2-[2-(1-isopropyl-3,5-dimethyl-1H-pyrazol-4-yl)-3H-imidazo[4,5-b]pyridin-7-yl]-6,7,8,9-tetrahydro-5H-benzocyclohepten-5-yl}-amide]
[1]
  pIC50: > 9.00
[2]
  pIC50: 8.00 to 9.00

## Cc1nn(C(C)C)c(C)c1-c1nc2c(-c3ccc4c(c3)CCCC[C@@H]4NC(=O)c3nc(C4(C)CC4)no3)ccnc2[nH]1 [Compound 36, 3-(1-Methyl-cyclopropyl)-[1,2,4]oxadiazole-5-carboxylic acid {(S)-2-[2-(1-isopropyl-3,5-dimethyl-1H-pyrazol-4-yl)-3H-imidazo[4,5-b]pyridin-7-yl]-6,7,8,9-tetrahydro-5H-benzocyclohepten-5-yl}-amide]
[1]
  pIC50: 8.00 to 9.00
[2]
  pIC50: < 7.00

## Cn1cc(-c2nc3c(-c4ccc5c(c4)OCCCC5NC(=O)c4noc(C(C)(C)C)n4)ccnc3[nH]2)cn1 (centres unmarked) [Compound 37, 5-tert-Butyl-[1,2,4]oxadiazole-3-carboxylic acid {8-[2-(1-methyl-1H-pyrazol-4-yl)-3H-imidazo[4,5-b]pyridin-7-yl]-2,3,4,5-tetrahydro-benzo[b]oxepin-5-yl}-amide]
[1]
  pIC50: > 9.00
[2]
  pIC50: 8.00 to 9.00

## Cn1cc(-c2nc3c(-c4ccc5c(c4)OCCCC5NC(=O)c4nc(C(C)(C)C)no4)ccnc3[nH]2)cn1 (centres unmarked) [Compound 38, 3-tert-Butyl-[1,2,4]oxadiazole-5-carboxylic acid {8-[2-(1-methyl-1H-pyrazol-4-yl)-3H-imidazo[4,5-b]pyridin-7-yl]-2,3,4,5-tetrahydro-benzo[b]oxepin-5-yl}-amide]
[1]
  pIC50: > 9.00
[2]
  pIC50: 8.00 to 9.00

## Cn1cc(-c2nc3c(-c4ccc5c(c4)CCCCC5NC(=O)c4noc(C(C)(C)C)n4)ccnc3[nH]2)cn1 (centres unmarked) [Compound 39, 5-tert-Butyl-[1,2,4]oxadiazole-3-carboxylic acid {2-[2-(1-methyl-1H-pyrazol-4-yl)-3H-imidazo[4,5-b]pyridin-7-yl]-6,7,8,9-tetrahydro-5H-benzocyclohepten-5-yl}-amide]
[1]
  pIC50: > 9.00
[2]
  pIC50: > 9.00

## Cn1cc(-c2nc3c(-c4ccc5c(c4)CCCCC5NC(=O)c4noc(C5(C)CC5)n4)ccnc3[nH]2)cn1 (centres unmarked) [Compound 40, 5-(1-Methyl-cyclopropyl)-[1,2,4]oxadiazole-3-carboxylic acid {2-[2-(1-methyl-1H-pyrazol-4-yl)-3H-imidazo[4,5-b]pyridin-7-yl]-6,7,8,9-tetrahydro-5H-benzocyclohepten-5-yl}-amide]
[1]
  pIC50: > 9.00
[2]
  pIC50: 8.00 to 9.00

## Cn1cc(-c2nc3c(-c4ccc5c(c4)CCCCC5NC(=O)c4cc(C5(C)CC5)on4)ccnc3[nH]2)cn1 (centres unmarked) [Compound 41, 5-(1-Methyl-cyclopropyl)-isoxazole-3-carboxylic acid {2-[2-(1-methyl-1H-pyrazol-4-yl)-3H-imidazo[4,5-b]pyridin-7-yl]-6,7,8,9-tetrahydro-5H-benzocyclohepten-5-yl}-amide]
[1]
  pIC50: > 9.00
[2]
  pIC50: 8.00 to 9.00

## Cn1cc(-c2nc3c(-c4ccc5c(c4)CCCCC5NC(=O)c4nnc(C(C)(C)C)o4)ccnc3[nH]2)cn1 (centres unmarked) [Compound 42, 5-tert-Butyl-[1,3,4]oxadiazole-2-carboxylic acid {2-[2-(1-methyl-1H-pyrazol-4-yl)-3H-imidazo[4,5-b]pyridin-7-yl]-6,7,8,9-tetrahydro-5H-benzocyclohepten-5-yl}-amide]
[1]
  pIC50: > 9.00
[2]
  pIC50: 8.00 to 9.00

## Cn1cc(-c2nc3c(-c4ccc5c(c4)CCCCC5NC(=O)N4CC(OC(C)(C)C)C4)ccnc3[nH]2)cn1 (centres unmarked) [Compound 43, 3-tert-Butoxy-azetidine-1-carboxylic acid {2-[2-(1-methyl-1H-pyrazol-4-yl)-3H-imidazo[4,5-b]pyridin-7-yl]-6,7,8,9-tetrahydro-5H-benzocyclohepten-5-yl}-amide]
[1]
  pIC50: > 9.00
[2]
  pIC50: 8.00 to 9.00

## Cn1cc(-c2nc3c(-c4ccc5c(c4)OCCC[C@H]5NC(=O)c4nc(C(C)(C)C)no4)ccnc3[nH]2)cn1 [Compound 44, 3-tert-Butyl-[1,2,4]oxadiazole-5-carboxylic acid {(R)-8-[2-(1-methyl-1H-pyrazol-4-yl)-3H-imidazo[4,5-b]pyridin-7-yl]-2,3,4,5-tetrahydro-benzo[b]oxepin-5-yl}-amide]
[1]
  pIC50: 8.00 to 9.00
[2]
  pIC50: 7.00 to 8.00

## Cn1cc(-c2nc3c(-c4ccc5c(c4)OCCC[C@@H]5NC(=O)c4nc(C(C)(C)C)no4)ccnc3[nH]2)cn1 [Compound 45, 3-tert-Butyl-[1,2,4]oxadiazole-5-carboxylic acid {(S)-8-[2-(1-methyl-1H-pyrazol-4-yl)-3H-imidazo[4,5-b]pyridin-7-yl]-2,3,4,5-tetrahydro-benzo[b]oxepin-5-yl}-amide]
[1]
  pIC50: > 9.00
[2]
  pIC50: 8.00 to 9.00
